How the values were obtained:
PI3Kγ = PI3Kγ (Homo sapiens, UniProt P48736); assay: X-ray cocrystal structure ([…] Å); purified kinase assay IC50; type: biochemical; set-up: gene PIK3CG; S144-A1102
EGFR = EGFR (Homo sapiens, UniProt P00533); assay: as above; type: biochemical; set-up: G696-G1022
[1] = target: T1, H1 (h) (antagonist radioligand) (Homo sapiens, UniProt P35367); assay: biochemical; settings: read-out: Binding / ================================================= / % Inhibition of Control Specific Binding
T1 construct: gene HRH1

[2] = target: T2, mu (MOP) (h) (agonist radioligand) (Homo sapiens, UniProt P35372); assay: biochemical; settings: read-out: Binding / ================================================= / % Inhibition of Control Specific Binding
T2 construct: gene OPRM1

[3] = target: T3, 5-HT3 (h) (antagonist radioligand) (Homo sapiens, UniProt P46098); assay: biochemical; settings: read-out: Binding / ================================================= / % Inhibition of Control Specific Binding
T3 construct: gene HTR3A

[4] = target: T4, PAF (h) (agonist radioligand) (Homo sapiens, UniProt P25105); assay: biochemical; settings: read-out: Binding / ================================================= / % Inhibition of Control Specific Binding
T4 construct: gene PTAFR

[5] = target: T5, PR (h) (agonist radioligand) (Homo sapiens, UniProt P06401); assay: biochemical; settings: read-out: Binding / ================================================= / % Inhibition of Control Specific Binding
T5 construct: gene PGR

[6] = target: T6, PPARgamma h) (agonist radioligand) (Homo sapiens, UniProt P37231); assay: biochemical; settings: read-out: Binding / ================================================= / % Inhibition of Control Specific Binding
T6 construct: gene PPARG

[7] = target: T7, 5-HT2A (h) (agonist radioligand) (Homo sapiens, UniProt P28223); assay: biochemical; set-up: Eurofins SafetyScreen 87 binding part: inhibition of control specific ligand binding, single concentration; settings: read-out: Binding / ================================================= / % Inhibition of Control Specific Binding
T7 construct: gene HTR2A

PI3Kα = PI3Kα (Homo sapiens, UniProt P42336); assay: biochemical kinase assay at ATP Km apparent; set-up: gene PIK3CA
mTOR = target: T8, mTOR (Homo sapiens, UniProt P42345); assay: biochemical; set-up: Purified kinase inhibition, Z'-LYTE (HER, mTOR, DNA-PK) or Adapta (PI3K), ATP at Km apparent
T8 construct: Km ATP
Experimental: (§1) IC50 values were determined at a concentration of ATP corresponding to the Km apparent for that kinase.

HER2 = target: T9, HER2 (Homo sapiens, UniProt P04626); assay: biochemical; set-up: Purified kinase inhibition, Z'-LYTE (HER, mTOR, DNA-PK) or Adapta (PI3K), ATP at Km apparent
T9 construct: gene ERBB2; Km ATP
Experimental: as §1

HER4 = target: T10, HER4 (Homo sapiens, UniProt Q15303); assay: biochemical; set-up: Purified kinase inhibition, Z'-LYTE (HER, mTOR, DNA-PK) or Adapta (PI3K), ATP at Km apparent
T10 construct: gene ERBB4; Km ATP
Experimental: as §1

PI3Kβ = target: T11, PI3Kβ (Homo sapiens, UniProt P42338); assay: biochemical; set-up: Purified kinase inhibition, Z'-LYTE (HER, mTOR, DNA-PK) or Adapta (PI3K), ATP at Km apparent
T11 construct: gene PIK3CB; Km ATP
Experimental: as §1

PPARγ = target: T12, PPARγ (Homo sapiens, UniProt P37231); assay: X-ray cocrystal structure ([…] Å); TR-FRET competitive binding
T12 construct: gene PPARG; L232-Y505 of UniProt entry P37231-2

[8] = target: T13, Potassium Channel hERG (human)- [3H] Dofetilide (Homo sapiens, UniProt Q12809); assay: in vitro
T13 construct: gene KCNH2

cathepsin G (h) = target: T14, cathepsin G (h) (Homo sapiens, UniProt P08311); set-up: Eurofins SafetyScreen 87 enzyme part: inhibition of control enzyme activity, single concentration; settings: mean of 2, 10 µM, inhibitor
T14 construct: gene CTSG

COX2(h) = target: T15, COX2(h) (Homo sapiens, UniProt P35354); set-up: Eurofins SafetyScreen 87 enzyme part: inhibition of control enzyme activity, single concentration; settings: mean of 2, 10 µM, inhibitor
T15 construct: gene PTGS2

ACE (h) = ACE (h) (Homo sapiens, UniProt P12821); set-up: Eurofins SafetyScreen 87 enzyme part: inhibition of control enzyme activity, single concentration; settings: mean of 2, 10 µM, inhibitor
PDE3A (h) = PDE3A (h) (Homo sapiens, UniProt Q14432); set-up: Eurofins SafetyScreen 87 enzyme part: inhibition of control enzyme activity, single concentration; settings: mean of 2, 10 µM, inhibitor
PKCalpha (h) = target: T16, PKCalpha (h) (Homo sapiens, UniProt P17252); set-up: Eurofins SafetyScreen 87 enzyme part: inhibition of control enzyme activity, single concentration; settings: mean of 2, 10 µM, inhibitor
T16 construct: gene PRKCA

PDE4D2 (h) = target: T17, PDE4D2 (h) (Homo sapiens, UniProt Q08499); set-up: Eurofins SafetyScreen 87 enzyme part: inhibition of control enzyme activity, single concentration; settings: mean of 2, 10 µM, inhibitor
T17 construct: gene PDE4D; isoform PDE4D2

[9] = target: T18, MAO-B (h) recombinant enzyme (Homo sapiens, UniProt P27338); set-up: Eurofins SafetyScreen 87 enzyme part: inhibition of control enzyme activity, single concentration; settings: mean of 2, 10 µM, inhibitor
T18 construct: gene MAOB; recombinant enzyme

COX1(h) = target: T19, COX1(h) (Homo sapiens, UniProt P23219); set-up: Eurofins SafetyScreen 87 enzyme part: inhibition of control enzyme activity, single concentration; settings: mean of 2, 10 µM, inhibitor
T19 construct: gene PTGS1

Lck kinase (h) = Lck kinase (h) (Homo sapiens, UniProt P06239); set-up: Eurofins SafetyScreen 87 enzyme part: inhibition of control enzyme activity, single concentration; settings: mean of 2, 10 µM, inhibitor
IRK (h) (InsR) = IRK (h) (InsR) (Homo sapiens, UniProt P06213); set-up: Eurofins SafetyScreen 87 enzyme part: inhibition of control enzyme activity, single concentration; settings: mean of 2, 10 µM, inhibitor

T15 sequence (P35354 whole entry): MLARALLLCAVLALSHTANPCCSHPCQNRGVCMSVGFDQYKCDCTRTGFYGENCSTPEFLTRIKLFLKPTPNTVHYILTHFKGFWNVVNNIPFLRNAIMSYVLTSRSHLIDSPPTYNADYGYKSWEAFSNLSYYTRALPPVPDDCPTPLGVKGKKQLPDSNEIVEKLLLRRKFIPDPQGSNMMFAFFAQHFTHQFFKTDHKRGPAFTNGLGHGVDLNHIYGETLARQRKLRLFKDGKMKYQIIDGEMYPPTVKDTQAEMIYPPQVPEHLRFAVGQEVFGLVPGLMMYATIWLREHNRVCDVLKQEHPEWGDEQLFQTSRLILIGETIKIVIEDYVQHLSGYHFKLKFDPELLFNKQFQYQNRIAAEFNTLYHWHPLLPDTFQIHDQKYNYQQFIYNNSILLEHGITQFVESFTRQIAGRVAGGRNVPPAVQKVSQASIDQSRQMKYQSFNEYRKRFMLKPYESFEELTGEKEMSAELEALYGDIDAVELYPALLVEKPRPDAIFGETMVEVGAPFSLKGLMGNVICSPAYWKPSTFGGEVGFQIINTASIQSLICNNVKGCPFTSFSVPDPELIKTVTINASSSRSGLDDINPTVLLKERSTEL
Chain of EGFR (P00533 696-1022): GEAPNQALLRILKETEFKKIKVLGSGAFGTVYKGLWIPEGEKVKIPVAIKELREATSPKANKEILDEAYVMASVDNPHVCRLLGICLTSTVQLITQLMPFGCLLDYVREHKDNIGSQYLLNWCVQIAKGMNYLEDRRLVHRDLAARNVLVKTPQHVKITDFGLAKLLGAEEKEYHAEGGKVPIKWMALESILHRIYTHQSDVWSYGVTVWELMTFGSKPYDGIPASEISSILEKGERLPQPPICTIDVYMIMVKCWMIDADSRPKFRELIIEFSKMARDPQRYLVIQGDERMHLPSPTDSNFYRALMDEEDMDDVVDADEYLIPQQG
T13 sequence (Q12809 whole entry): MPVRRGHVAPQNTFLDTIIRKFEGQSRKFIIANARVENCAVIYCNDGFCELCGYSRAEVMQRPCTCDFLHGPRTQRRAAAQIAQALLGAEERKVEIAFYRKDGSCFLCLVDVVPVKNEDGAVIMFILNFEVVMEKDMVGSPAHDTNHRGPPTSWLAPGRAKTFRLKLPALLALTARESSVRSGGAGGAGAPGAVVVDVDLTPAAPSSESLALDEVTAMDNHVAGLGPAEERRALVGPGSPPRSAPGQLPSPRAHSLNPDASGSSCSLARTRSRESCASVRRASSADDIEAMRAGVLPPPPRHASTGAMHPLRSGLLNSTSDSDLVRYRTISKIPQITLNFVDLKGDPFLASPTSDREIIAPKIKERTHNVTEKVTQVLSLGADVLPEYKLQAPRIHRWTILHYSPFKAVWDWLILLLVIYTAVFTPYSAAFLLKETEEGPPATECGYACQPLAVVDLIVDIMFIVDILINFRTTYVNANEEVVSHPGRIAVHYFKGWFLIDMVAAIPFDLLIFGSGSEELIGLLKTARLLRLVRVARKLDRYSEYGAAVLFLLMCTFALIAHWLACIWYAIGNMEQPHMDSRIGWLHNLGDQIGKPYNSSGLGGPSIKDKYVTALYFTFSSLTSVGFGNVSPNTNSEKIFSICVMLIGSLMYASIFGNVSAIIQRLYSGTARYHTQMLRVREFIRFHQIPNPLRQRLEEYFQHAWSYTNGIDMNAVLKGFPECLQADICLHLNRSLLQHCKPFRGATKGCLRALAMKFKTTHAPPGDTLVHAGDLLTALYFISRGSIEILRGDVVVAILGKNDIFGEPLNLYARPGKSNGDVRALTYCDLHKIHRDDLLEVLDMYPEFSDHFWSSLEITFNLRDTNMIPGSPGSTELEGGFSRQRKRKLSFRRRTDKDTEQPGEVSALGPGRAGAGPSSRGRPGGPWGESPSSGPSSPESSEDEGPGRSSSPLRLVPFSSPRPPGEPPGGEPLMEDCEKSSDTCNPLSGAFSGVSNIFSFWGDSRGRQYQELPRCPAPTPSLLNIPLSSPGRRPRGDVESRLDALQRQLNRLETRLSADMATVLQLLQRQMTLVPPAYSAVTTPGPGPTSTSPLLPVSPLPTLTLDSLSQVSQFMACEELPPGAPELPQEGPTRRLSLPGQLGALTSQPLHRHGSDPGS
Chain of PI3Kγ (P48736 144-1102): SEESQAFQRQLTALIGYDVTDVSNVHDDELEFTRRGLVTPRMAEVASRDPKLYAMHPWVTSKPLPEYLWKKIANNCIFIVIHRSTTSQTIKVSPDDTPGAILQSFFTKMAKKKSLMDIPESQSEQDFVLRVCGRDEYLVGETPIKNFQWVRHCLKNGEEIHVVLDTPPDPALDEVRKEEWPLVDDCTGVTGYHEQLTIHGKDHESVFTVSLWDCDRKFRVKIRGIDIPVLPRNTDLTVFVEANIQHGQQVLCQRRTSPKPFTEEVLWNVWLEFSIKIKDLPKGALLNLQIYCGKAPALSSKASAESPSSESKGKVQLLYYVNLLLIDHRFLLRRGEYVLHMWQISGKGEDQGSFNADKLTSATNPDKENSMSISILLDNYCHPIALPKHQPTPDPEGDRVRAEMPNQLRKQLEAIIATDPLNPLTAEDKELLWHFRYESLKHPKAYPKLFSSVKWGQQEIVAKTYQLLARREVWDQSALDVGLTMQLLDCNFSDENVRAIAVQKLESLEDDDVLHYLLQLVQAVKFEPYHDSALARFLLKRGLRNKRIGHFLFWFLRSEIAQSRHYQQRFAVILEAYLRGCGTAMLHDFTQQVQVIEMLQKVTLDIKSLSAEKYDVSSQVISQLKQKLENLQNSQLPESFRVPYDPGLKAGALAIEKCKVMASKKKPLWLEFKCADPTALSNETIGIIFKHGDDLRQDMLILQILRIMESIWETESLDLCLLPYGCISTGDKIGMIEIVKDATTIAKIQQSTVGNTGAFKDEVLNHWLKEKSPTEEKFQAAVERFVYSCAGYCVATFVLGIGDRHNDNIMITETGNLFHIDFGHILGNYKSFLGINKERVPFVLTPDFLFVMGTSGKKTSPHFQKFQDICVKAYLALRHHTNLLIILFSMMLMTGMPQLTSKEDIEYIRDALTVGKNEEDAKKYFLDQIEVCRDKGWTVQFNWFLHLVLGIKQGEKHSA
T6 sequence (P37231 whole entry): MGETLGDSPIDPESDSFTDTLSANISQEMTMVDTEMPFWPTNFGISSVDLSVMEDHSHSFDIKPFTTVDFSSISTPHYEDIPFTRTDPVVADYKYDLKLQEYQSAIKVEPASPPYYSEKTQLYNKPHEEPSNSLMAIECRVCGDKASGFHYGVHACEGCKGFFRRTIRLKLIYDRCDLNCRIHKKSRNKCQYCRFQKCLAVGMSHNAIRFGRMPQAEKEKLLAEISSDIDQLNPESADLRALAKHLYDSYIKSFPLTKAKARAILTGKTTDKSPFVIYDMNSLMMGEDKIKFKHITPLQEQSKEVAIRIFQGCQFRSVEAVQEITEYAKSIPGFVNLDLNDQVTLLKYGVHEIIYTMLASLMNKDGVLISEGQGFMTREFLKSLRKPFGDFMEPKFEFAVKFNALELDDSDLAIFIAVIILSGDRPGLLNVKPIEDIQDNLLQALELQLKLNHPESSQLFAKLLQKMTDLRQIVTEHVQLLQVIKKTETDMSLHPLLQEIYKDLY
T19 sequence (P23219 whole entry): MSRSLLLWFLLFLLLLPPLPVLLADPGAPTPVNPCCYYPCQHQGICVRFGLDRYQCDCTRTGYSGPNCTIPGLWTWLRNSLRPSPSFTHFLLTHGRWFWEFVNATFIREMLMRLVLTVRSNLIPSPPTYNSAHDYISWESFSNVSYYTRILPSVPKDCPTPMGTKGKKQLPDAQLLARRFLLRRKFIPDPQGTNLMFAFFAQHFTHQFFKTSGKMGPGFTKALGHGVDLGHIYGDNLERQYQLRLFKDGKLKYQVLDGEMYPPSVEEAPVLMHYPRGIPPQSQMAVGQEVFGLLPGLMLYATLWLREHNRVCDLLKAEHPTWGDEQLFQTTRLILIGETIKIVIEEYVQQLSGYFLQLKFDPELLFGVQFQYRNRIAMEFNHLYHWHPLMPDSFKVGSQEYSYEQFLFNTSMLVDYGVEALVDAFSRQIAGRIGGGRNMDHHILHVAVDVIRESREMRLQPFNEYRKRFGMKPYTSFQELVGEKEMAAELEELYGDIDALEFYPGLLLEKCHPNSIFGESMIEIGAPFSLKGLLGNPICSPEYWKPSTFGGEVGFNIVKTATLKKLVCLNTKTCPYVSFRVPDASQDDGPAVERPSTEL
T7 sequence (P28223 whole entry): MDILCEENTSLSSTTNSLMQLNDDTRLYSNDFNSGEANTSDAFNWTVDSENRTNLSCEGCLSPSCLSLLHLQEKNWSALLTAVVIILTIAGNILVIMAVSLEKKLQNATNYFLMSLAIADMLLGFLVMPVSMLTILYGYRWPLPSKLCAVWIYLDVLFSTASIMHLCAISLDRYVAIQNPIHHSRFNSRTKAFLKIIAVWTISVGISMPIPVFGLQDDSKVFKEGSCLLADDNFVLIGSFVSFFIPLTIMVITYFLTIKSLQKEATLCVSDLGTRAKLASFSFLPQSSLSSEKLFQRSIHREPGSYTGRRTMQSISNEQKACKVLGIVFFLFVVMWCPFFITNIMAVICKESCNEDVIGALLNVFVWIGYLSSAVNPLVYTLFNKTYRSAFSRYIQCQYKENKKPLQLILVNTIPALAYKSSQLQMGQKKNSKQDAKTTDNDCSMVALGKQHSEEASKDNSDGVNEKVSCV
T4 sequence (P25105 whole entry): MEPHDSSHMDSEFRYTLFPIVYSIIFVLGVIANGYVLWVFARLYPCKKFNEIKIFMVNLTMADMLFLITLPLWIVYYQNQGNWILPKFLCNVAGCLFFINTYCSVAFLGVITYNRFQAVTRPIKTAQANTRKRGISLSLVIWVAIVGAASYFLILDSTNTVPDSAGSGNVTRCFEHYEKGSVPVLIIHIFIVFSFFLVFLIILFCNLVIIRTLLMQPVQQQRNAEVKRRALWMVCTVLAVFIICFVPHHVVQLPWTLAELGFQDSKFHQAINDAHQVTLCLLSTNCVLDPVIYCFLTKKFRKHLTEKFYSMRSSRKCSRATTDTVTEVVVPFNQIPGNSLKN

C[C@@H](Nc1ncnc2ccc(-c3cnc(Cl)c(NS(C)(=O)=O)c3)cc12)c1ccccc1 [MTX-531, (R)-N-(2-chloro-5-(4-((1-phenylethyl)amino)quinazolin-6-yl)pyridin-3-yl)methane-sulfonamide]
IC50 (PI3Kγ): 8.3 nM
IC50 (EGFR): 14.7 nM
inhibition at 10 µM [1]: -7%
inhibition at 10 µM [2]: 25%
inhibition at 10 µM [3]: 10%
inhibition at 10 µM [4]: 1%
inhibition at 10 µM [5]: -14%
inhibition at 10 µM [6]: 48%
inhibition at 10 µM [7]: -5%
IC50 (PI3Kα): 6.4 nM
IC50 (mTOR): 105 nM
IC50 (HER2): 2500 nM
IC50 (HER4): > 10000 nM
IC50 (PI3Kβ): 233 nM
IC50 (PPARγ): 2500 nM
inhibition at 10 µM [8]: 51%
% inhibition of control enzyme activity (cathepsin G (h)): 26%
% inhibition of control enzyme activity (COX2(h)): -3%
% inhibition of control enzyme activity (ACE (h)): -2%
% inhibition of control enzyme activity (PDE3A (h)): 29%
% inhibition of control enzyme activity (PKCalpha (h)): -3%
% inhibition of control enzyme activity (PDE4D2 (h)): 88%
% inhibition of control enzyme activity [9]: 10%
% inhibition of control enzyme activity (COX1(h)): -4%
% inhibition of control enzyme activity (Lck kinase (h)): 4%
% inhibition of control enzyme activity (IRK (h) (InsR)): 0%

— article PMC11357990, “A first-in-class selective inhibitor of EGFR and PI3K offers a single-molecule approach to targeting adaptive resistance” (Nature Cancer, 2024)
